20 compounds from patent publication US8927533B2, “Thio derivatives bearing lactams as potent HDAC inhibitors and their uses as medicaments” (SIGMA-TAU Industrie Farmaceutiche Riunite S.p.A., priority 2011, dated 2015) can be followed below.

Where only a bound is given, the exact number is not on record here.

In one series the test system is HCT116 colon cancer cells. As to the kind of experiment: Cytotoxicity, sulphorodamine B, HCT116. To be noted: Homo sapiens, HCT-116, read-out: HCT116 cell line IC50 (μM).
Description: (§1) They were allowed to attach and recover for at least 24 h.
(§2) The plates were incubated for 24 h at 37° C., after which they were washed 3 times by removal of the supernatant and addition of PBS. The plates were then incubated for further 48 h at 37° C. 200 μl PBS and 50 μl of cold 80% TCA were added and the plates were incubated on ice for at least 1 h. TCA was removed and the plates were washed 3 times by immersion in distilled-water. They were then dried on paper at 40° C. for 5 min. 200 μl of 0.4% sulphorodamine B in 1% acetic acid were added. The plates were incubated at room temperature for further 30 min. Sulphorodamine B was removed, and the plates were washed 3 times by immersion in 1% acetic acid and were dried on paper and at 40° C. for 5 min. Then 200 μl Tris 10 mM were added. The plates were kept under magnetic stirring for 20 min. Cell survival was determined by means of optical density by a Multiskan spectrofluorimeter at 540 nm. The amount of cells killed was calculated as the percentage decrease in sulphorodamine B binding compared to control cultures.
As to `CC(=O)SCCCCC[C@H](NC(=O)[C@H]1C(=O)NC[C@@H]1c1ccccc1)C(=O)Nc1ccccc1` (relative stereo) [Example 19, Thioacetic acid S—{(S)-6-[((3R*,4S*)-2-oxo-4-phenyl-pyrrolidine-3-carbonyl)-amino]-6-phenylcarbamoyl-hexyl}ester], the IC50 is under 0.5 µM.

Regarding `CC(=O)SCCCCC[C@H](NC(=O)[C@H]1C(=O)NC[C@H]1c1ccccc1)C(=O)Nc1ccccc1` (relative stereo) [Example 20, Thioacetic acid S—{(S)-6-[((3R*,4R*)-2-oxo-4-phenyl-pyrrolidine-3-carbonyl)-amino]-6-phenylcarbamoyl-hexyl}ester], the IC50 was 0.5 to 1 µM.

Take `CC(=O)SCCCCC[C@H](NC(=O)C1CCCNC1=O)C(=O)Nc1ccccc1` (stereo in doubt) [Example 22, Thioacetic acid S—{(S)-6-[(R*)-(2-oxo-piperidine-3-carbonyl)-amino]-6-phenylcarbamoyl-hexyl}ester]: the half-maximal inhibitory concentration (IC50) was in the range of 1 to 10 µM.

Consider `CC(=O)SCCCCC[C@H](NC(=O)[C@@H]1CCCC(=O)N1)C(=O)NC1CCCC1` [Example 17, Thioacetic acid S—{(S)-6-[((S)-6-oxo-piperidine-2-carbonyl)-amino]-6-cyclopentylcarbamoyl-hexyl}ester], for which the 50% inhibitory concentration (IC50) was 1 to 10 µM.

The next series concerns NCI-H460 non-small cell lung carcinoma cells. Briefly: Cytotoxicity, sulphorodamine B, H460. Particulars: Homo sapiens, NCI-H460, read-out: H460 cell line IC50 (μM).
Description: as §1, §2
With `CC(=O)SCCCCC[C@H](NC(=O)[C@H]1C(=O)NC[C@@H]1c1ccccc1)C(=O)Nc1ccccc1` (relative stereo) [Example 19, Thioacetic acid S—{(S)-6-[((3R*,4S*)-2-oxo-4-phenyl-pyrrolidine-3-carbonyl)-amino]-6-phenylcarbamoyl-hexyl}ester], the IC50 is under 0.5 µM.

On to `CC(=O)SCCCCC[C@H](NC(=O)[C@@H]1CC(=O)N1)C(=O)Nc1ccccc1` [Example 1, Thioacetic acid S—{(S)-6-[((S)-4-oxo-azetidine-2-carbonyl)-amino]-6-phenylcarbamoyl-hexyl}ester], for which the IC50 is under 0.5 µM.

Take `CC(=O)SCCCCC[C@H](NC(=O)[C@@H]1CCCC(=O)N1)C(=O)NCCc1cccc(C)c1` [Example 5, Thioacetic acid S—[(S)-6-[((S)-6-oxo-piperidine-2-carbonyl)-amino]-6-(2-m-tolyl-ethylcarbamoyl)-hexyl]ester]: the concentration for half-maximal inhibition (IC50) fell in the range of 1 to 10 µM.

On to `CC(=O)SCCCCC[C@H](NC(=O)[C@H]1CCC(=O)N1C)C(=O)Nc1cccc(C)c1` [Example 6, Thioacetic acid S—{(S)-6-[((R)-1-methyl-5-oxo-pyrrolidine-2-carbonyl)-amino]-6-m-tolylcarbamoyl-hexyl}ester], for which the IC50 is under 0.5 µM.

Consider `CC(=O)SCCCCC[C@H](NC(=O)[C@@H]1CCC(=O)N1)C(=O)Nc1cccc(C)c1` [Example 7, Thioacetic acid S—{(S)-6-[((S)-5-oxo-pyrrolidine-2-carbonyl)-amino]-6-m-tolylcarbamoyl-hexyl}ester], for which the IC50 is under 0.5 µM.

Regarding `CC(=O)SCCCCC[C@H](NC(=O)[C@H]1CCC(=O)N1)C(=O)Nc1cccc(C)c1` [Example 8, Thioacetic acid S—{(S)-6-[((R)-5-oxo-pyrrolidine-2-carbonyl)-amino]-6-m-tolylcarbamoyl-hexyl}ester], the IC50 was under 0.5 µM.

`CC(=O)SCCCCC[C@H](NC(=O)[C@@H]1CC=CC(=O)N1)C(=O)Nc1ccccc1` [Example 10, Thioacetic acid S—{(S)-6-[((S)-6-oxo-1,2,3,6-tetrahydro-pyridine-2-carbonyl)-amino]-6-phenylcarbamoyl-hexyl}ester]: the IC50 was under 0.5 µM.

For the compound `CC(=O)SCCCCC[C@H](NC(=O)[C@@H]1CCC(=O)N1)C(=O)Nc1ccccc1` [Example 11, Thioacetic acid S—{(S)-6-[((S)-5-oxo-pyrrolidine-2-carbonyl)-amino]-6-phenylcarbamoyl-hexyl}ester], the 50% inhibitory concentration (IC50) is under 0.5 µM.

As to `CC(=O)SCCCCC[C@H](NC(=O)[C@H]1CCCC(=O)N1)C(=O)Nc1ccccc1` [Example 13, Thioacetic acid S—{(S)-6-[((R)-6-oxo-piperidine-2-carbonyl)-amino]-6-phenylcarbamoyl-hexyl}ester], the IC50 is under 0.5 µM.

For `CC(=O)SCCCCC[C@H](NC(=O)[C@@H]1CCCC(=O)N1)C(=O)Nc1ccc(C)cc1` [Example 15, Thioacetic acid S—{(S)-6-[((S)-6-oxo-piperidine-2-carbonyl)-amino]-6-p-tolylcarbamoyl-hexyl}ester], the IC50 is under 0.5 µM.

Take `CC(=O)SCCCCC[C@H](NC(=O)[C@@H]1CCCC(=O)N1)C(=O)Nc1cccc(C)c1` [Example 16, Thioacetic acid S—{(S)-6-[((S)-6-oxo-piperidine-2-carbonyl)-amino]-6-m-tolylcarbamoyl-hexyl}ester]: the half-maximal inhibitory concentration (IC50) is under 0.5 µM.

Turning to `CC(=O)SCCCCC[C@H](NC(=O)[C@H]1CCC(=O)N1)C(=O)Nc1cccc(C(F)(F)F)c1` [Example 18, Thioacetic acid S—[(S)-6-[((R)-5-oxo-pyrrolidine-2-carbonyl)-amino]-6-(3-trifluoromethyl-phenylcarbamoyl)-hexyl]ester], the half-inhibitory concentration (IC50) is under 0.5 µM.

Consider `CCOC(=S)OCCCCC[C@H](NC(=O)[C@@H]1CCCC(=O)N1)C(=O)Nc1ccccc1` [Example 41, Thiocarbonic acid ethyl ester {(S)-6-[((S)-6-oxo-piperidine-2-carbonyl)-amino]-6-phenylcarbamoyl-hexyl}ester], for which the IC50 fell in the range of 0.5 to 1 µM.

With `CCOC(=S)OCCCCC[C@H](NC(=O)[C@H]1CCC(=O)N1)C(=O)Nc1ccccc1` [Example 42, Thiocarbonic acid ethyl ester {(S)-6-[((R)-5-oxo-pyrrolidine-2-carbonyl)-amino]-6-phenylcarbamoyl-hexyl}ester], the IC50 is under 0.5 µM.

For the compound `CC(C)C(=O)SCCCCC[C@H](NC(=O)[C@@H]1CCCC(=O)N1)C(=O)Nc1ccccc1` [Example 43, Thioisobutyric acid S—{(S)-6-[((S)-6-oxo-piperidine-2-carbonyl)-amino]-6-phenylcarbamoyl-hexyl}ester], the half-inhibitory concentration (IC50) lay in the range of 1 to 10 µM.

Another series has as its system HCT116 colon cancer. Briefly: Antitumour activity, HCT116 xenograft, oral (Example 49). Particulars: 100 mg/10 ml/kg p.o., PEG200/DMSO/Cremophor EL. In kind it is in vivo, mice. From the text:
The experiment of example 48 was repeated with another compound on mice animal model developing HCT116 colon cancer as described above or A2780 ovarian cancer, and administering the drugs solubilised in orally in PEG200/DMSO/Cremophor EL (Sigma): 85/10/5 (volume percentage).
In turn, `CC(=O)SCCCCCCC(=O)Nc1ccccc1` [Compound A, Thioacetic acid S-(6-phenylcarbamoyl-hexyl)ester] returned a BWL % of 0% and a TVI % of 11%.

The next series deals with NCI-H460 NSCLC. Briefly: Antitumour activity, NCI-H460 xenograft (Example 48). To be noted: 2 mg/10 ml/kg i.p., q4d/w×3w.
Description: The tested derivatives were administered as a suspension in PBS/DMSO/Cremophor EL (Sigma): 85/10/5 (volume percentage). The antitumour activity was determined by measuring tumour diameters with a Vernier calliper according to the Formula TV=d^2×D/2
where d and D are the shortest and longest diameters, respectively.
When tumours reached a volume of about 1000 mm^3, mice were sacrificed by cervical dislocation. The efficacy of the drug was assessed as the tumour volume inhibition according to the Formula reported underneath:
Body weight recording was carried out to evaluate body weight loss as calculated in the equation underneath:
Wherein BW day x corresponds to the mean weight at day x of the experiment meanwhile BW day 1 corresponds to the mean weight at the first day of the experiment.
Compound `N.N.[Cl][Pt][Cl]` [Cisplatin] showed a TVI % of 56%.
